Assay type in all cases: biochemical
The target of test [1] is T1, Human recombinant HDAC4 (Homo sapiens (Human), UniProt P56524). Briefly: Test 1: HDAC4 assay (fluorogenic substrate, 10 μM acetyl-Gly-Ala-Lys(trifluoroacetyl)-AMC). The following applies: Test 1 (values indicated by an asterisk). As for the experimental part: Test 1: HDAC4 Assay Description
Human recombinant HDAC4 was expressed in full length form (aa 2-1084) in Sf9 insect cells (obtained from ATCC) using baculovirus generated with Bac-to-Bac system (Invitrogen). Test compounds were serially diluted to reach final test concentrations from 0.003 μM to 100 μM. HDAC4 and test compounds were incubated in 25 mM Tris buffer pH 8.0 containing 137 mM NaCl, 2.7 mM KCl, 1 mM MgCl2 and 0.05% (w/v) bovine serum albumine for 2 hours at room temperature in presence of 10 μM of acetyl-Gly-Ala-Lys(E-trifluoroacetyl)-AMC (AMC=7-amino-4-methyl coumarin) in a final volume of 200 μl. Control wells with HDAC4 only (positive control) and without HDAC4 (negative control) were included on the microplate. Bovine trypsin (10 μl of a 0.4 mg/ml solution) was added and the plate incubated for additional 15 minutes at room temperature. The plate was placed in a fluorescence microplate reader, and read at an excitation wavelength of 360 nm and an emission wavelength of 450 nm with a cut-off filter of 435 nm. Fluorescence values for all wells containing HDAC4 (positive control and wells with test compound) were corrected by subtracting negative control fluorescence values, and IC50 values were calculated by fitting the dose-response curves to a 4-parameter logistic function.
HDAC4 IC50 values were obtained using Test 2, except those values indicated by an asterisk which were obtained using Test 1. NT=Not Tested

Test [2] addresses Human recombinant full length HDAC6 (Homo sapiens (Human), UniProt Q9UBN7). Briefly: Test 4: HDAC6 assay. The following applies: Test 4; substrate 5 μM acetyl-Gly-Ala-Lys(acetyl)-AMC. The essentials: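 Baculovirus-expressed full-length recombinant human HDAC6 with 5 μM acetyl-Gly-Ala-Lys(acetyl)-AMC substrate, developed with trypsin 15 min at room temperature.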
In test [3] the target is T1, Human recombinant HDAC4. Briefly: Test 2: HDAC4 assay (fluorogenic substrate, 5 μM acetyl-Gly-Ala-Lys(ε-trifluoroacetyl)-AMC). Conditions: Test 2 (values without asterisk). The essentials:
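After the reaction, bovine trypsin (300 nM solution) was added for 15 min at RT to develop the signal; fluorescence read at 360/450 nm. No-enzyme background subtracted; IC50 from 4-parameter logistic fit of dose-response curves.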

In test [4] the target is Human recombinant full length HDAC1 (Homo sapiens (Human), UniProt Q13547). Briefly: Test 3: HDAC1 assay. The following applies: substrate 5 μM acetyl-Gly-Ala-Lys(acetyl)-AMC. The essentials: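 Baculovirus-expressed full-length human HDAC1 with 5 μM acetyl-Gly-Ala-Lys(acetyl)-AMC substrate, developed with trypsin 15 min at room temperature.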
Human recombinant full length HDAC1, sequence (Q13547 whole entry): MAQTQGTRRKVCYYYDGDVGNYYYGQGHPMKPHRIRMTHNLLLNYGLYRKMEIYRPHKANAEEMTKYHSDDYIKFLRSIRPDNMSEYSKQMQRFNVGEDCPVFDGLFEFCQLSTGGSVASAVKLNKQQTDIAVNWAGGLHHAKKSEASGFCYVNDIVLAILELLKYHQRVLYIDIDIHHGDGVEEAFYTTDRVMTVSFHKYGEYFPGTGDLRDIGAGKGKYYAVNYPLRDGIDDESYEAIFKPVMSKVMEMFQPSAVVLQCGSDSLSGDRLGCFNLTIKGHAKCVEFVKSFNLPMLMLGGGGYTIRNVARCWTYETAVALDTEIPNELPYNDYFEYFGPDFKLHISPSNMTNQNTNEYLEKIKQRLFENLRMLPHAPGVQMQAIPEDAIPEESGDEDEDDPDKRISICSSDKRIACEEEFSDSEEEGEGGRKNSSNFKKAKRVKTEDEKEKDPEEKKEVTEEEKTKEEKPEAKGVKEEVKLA

pIC50: −log10 of the molar value.

The term pIC50 denotes the IC50 on a negative log10 scale, so that one unit is a factor of ten.

Human recombinant full length HDAC6, sequence (Q9UBN7 whole entry): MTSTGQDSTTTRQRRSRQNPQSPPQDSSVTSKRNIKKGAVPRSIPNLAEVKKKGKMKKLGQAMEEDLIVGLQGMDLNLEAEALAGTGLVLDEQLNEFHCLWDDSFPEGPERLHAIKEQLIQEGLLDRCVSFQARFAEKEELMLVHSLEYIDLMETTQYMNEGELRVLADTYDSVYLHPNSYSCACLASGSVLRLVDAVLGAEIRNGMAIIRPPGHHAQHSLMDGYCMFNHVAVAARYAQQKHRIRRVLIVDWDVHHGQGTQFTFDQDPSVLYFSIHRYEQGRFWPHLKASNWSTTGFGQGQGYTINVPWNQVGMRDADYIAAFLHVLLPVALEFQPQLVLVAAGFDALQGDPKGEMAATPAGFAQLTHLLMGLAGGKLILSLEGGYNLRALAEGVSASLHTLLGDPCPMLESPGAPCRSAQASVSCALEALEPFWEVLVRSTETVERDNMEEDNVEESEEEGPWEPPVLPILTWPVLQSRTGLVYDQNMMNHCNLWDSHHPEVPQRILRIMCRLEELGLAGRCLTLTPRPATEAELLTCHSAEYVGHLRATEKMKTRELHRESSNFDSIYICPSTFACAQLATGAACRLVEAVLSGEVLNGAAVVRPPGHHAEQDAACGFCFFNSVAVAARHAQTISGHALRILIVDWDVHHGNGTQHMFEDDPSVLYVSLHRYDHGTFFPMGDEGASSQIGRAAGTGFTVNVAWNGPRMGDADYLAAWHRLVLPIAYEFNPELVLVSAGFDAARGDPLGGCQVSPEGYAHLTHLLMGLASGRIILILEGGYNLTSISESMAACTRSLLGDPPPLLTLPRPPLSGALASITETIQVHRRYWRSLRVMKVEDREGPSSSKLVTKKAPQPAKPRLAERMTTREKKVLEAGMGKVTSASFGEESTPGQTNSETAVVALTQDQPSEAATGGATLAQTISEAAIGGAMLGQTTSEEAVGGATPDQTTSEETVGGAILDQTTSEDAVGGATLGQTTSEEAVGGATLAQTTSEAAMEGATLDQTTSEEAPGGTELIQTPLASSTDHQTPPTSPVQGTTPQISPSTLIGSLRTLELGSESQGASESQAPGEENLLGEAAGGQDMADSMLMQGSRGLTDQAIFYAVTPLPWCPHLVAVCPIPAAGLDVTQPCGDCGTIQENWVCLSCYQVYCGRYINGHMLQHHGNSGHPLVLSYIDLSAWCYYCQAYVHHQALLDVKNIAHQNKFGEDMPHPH
T1 sequence (P56524 2-1084): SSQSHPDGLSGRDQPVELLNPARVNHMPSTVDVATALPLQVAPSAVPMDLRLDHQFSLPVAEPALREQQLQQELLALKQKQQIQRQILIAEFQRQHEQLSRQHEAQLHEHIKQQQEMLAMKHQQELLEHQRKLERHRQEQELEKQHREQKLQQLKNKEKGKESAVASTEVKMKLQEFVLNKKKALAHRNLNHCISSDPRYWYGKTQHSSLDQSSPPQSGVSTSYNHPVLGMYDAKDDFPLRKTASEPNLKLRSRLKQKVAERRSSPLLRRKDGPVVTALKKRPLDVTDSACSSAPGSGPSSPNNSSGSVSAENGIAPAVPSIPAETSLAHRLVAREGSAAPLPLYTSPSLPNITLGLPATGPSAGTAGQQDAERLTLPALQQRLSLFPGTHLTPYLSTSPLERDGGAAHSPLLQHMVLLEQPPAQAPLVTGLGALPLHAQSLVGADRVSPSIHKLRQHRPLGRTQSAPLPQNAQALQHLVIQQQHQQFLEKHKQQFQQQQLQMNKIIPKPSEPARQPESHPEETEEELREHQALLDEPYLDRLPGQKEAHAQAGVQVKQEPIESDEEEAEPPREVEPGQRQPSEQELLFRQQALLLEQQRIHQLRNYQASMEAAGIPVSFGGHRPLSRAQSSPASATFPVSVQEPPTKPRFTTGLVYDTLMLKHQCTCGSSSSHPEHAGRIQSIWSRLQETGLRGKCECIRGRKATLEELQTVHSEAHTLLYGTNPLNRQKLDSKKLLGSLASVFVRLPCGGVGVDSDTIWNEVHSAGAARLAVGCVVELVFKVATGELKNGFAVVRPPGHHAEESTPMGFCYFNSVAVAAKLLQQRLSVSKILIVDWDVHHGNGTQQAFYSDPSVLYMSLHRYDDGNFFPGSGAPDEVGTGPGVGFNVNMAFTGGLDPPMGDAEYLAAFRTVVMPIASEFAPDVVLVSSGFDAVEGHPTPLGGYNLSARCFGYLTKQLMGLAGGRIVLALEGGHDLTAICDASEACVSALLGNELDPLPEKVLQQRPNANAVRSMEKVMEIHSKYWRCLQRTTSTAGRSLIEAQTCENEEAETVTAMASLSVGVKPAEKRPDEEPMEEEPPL

For `O=C(NC1CC1)c1ccc(-c2noc(C(F)(F)F)n2)cc1` [Example 19, N-cyclopropyl-4-(5-(trifluoromethyl)-1,2,4-oxadiazol-3-yl)benzamide], the negative logarithm of the IC50 (pIC50) at Human recombinant HDAC4 [1] is 6.92.
Consider `O=S(=O)(Nc1cccc(F)c1)c1ccc(-c2noc(C(F)(F)F)n2)cc1` [Example 106, N-(3-fluorophenyl)-4-(5-(trifluoromethyl)-1,2,4-oxadiazol-3-yl)benzenesulfonamide], for which, on Human recombinant HDAC4 [1], the negative logarithm of the IC50 (pIC50) is 6.70.
On the same count and under the same terms, the same measure for `Cc1cc(NC(=O)c2ccc(-c3noc(C(F)(F)F)n3)cc2)ccn1` [Example 70, N-(2-methylpyridin-4-yl)-4-(5-(trifluoromethyl)-1,2,4-oxadiazol-3-yl)benzamide]: 7.05.
As to `O=S(=O)(Nc1cccnc1)c1ccc(-c2noc(C(F)(F)F)n2)cc1` [Example 100, N-(ppyridin-3-yl)-4-(5-(trifluoromethyl)-1,2,4-oxadiazol-3-yl)benzenesulfonamide], the pIC50 at Human recombinant HDAC4 [1] was 7.15.
With `CN(C)c1ccc(NC(=O)c2ccc(-c3noc(C(F)(F)F)n3)cc2)cc1` [Example 41, N-(4-(dimethylamino)phenyl)-4-(5-(trifluoromethyl)-1,2,4-oxadiazol-3-yl)benzamide], at Human recombinant HDAC4 [1], the pIC50 is 5.82.
Still for that read-out and setting: the same measure for `CCN(CC)C[C@H](C)NC(=O)c1ccc(-c2noc(C(F)(F)F)n2)cc1` [Example 133, (S)—N-(1-(diethylamino)propan-2-yl)-4-(5-(trifluoromethyl)-1,2,4-oxadiazol-3-yl)benzamide]: 7.32.
As to `CN1CCN(C(=O)Cc2ccc(-c3noc(C(F)(F)F)n3)cc2)CC1` [Example 10, 1-(4-methylpiperazin-1-yl)-2-(4-(5-(trifluoromethyl)-1,2,4-oxadiazol-3-yl)phenvyl)ethanone], the values for the pIC50 (in test [2]; on Human recombinant HDAC4 [3]; in test [4]) were 5.25, 5.89 and under 5.00, respectively.
`CC(=O)N1CCC(NC(=O)c2ccc(-c3noc(C(F)(F)F)n3)cc2)CC1` [Example 64, N-(1-acetylpiperidin-4-yl)-4-(5-(trifluoromethyl)-1,2,4-oxadiazol-3-yl)benzamide]: the pIC50 is under 5.00 in test [2], 6.29 on Human recombinant HDAC4 [3] and under 5.00 in test [4].
On to `CC(C)(C)c1cc(NC(=O)c2ccc(-c3noc(C(F)(F)F)n3)cc2)ccn1` [Example 69, N-(2-(tert-butyl)pyridin-4-yl)-4-(5-(trifluoromethyl)-1,2,4-oxadiazol-3-yl)benzamide], for which the pIC50 in test [2] was 5.17; on Human recombinant HDAC4 [3] it was 6.54; in test [4] it was under 5.00.
For the compound `Cc1ccc(NS(=O)(=O)c2ccc(-c3noc(C(F)(F)F)n3)cc2)cc1` [Example 108, N-p-tolyl-4-(5-(trifluoromethyl)-1,2,4-oxadiazol-3-yl)benzenesulfonamide], the negative-log IC50 (pIC50) in test [2] is 6.13; on Human recombinant HDAC4 [3], 7.03; in test [4], 5.30.
`CCC(CC)NC(=O)c1ccc(-c2noc(C(F)(F)F)n2)cc1` [Example 30, N-(pentan-3-yl)-4-(5-(trifluoromethyl)-1,2,4-oxadiazol-3-yl)benzamide]: the pIC50 in test [2] was under 5.00; on Human recombinant HDAC4 [3], 5.19; in test [4], under 5.00.
Regarding `CN1CC[C@@H](NC(=O)c2ccc(-c3noc(C(F)(F)F)n3)cc2)C1` [Example 153, (R)—N-(1-methylpyrrolidin-3-yl)-4-(5-(trifluoromethyl)-1,2,4-oxadiazol-3-yl)benzamide], the pIC50 in test [2] is 5.52; on Human recombinant HDAC4 [3], 8.44; in test [4] it was 5.74.

For the origin of these results see patent US9056843B2, “Trifluoromethyl-oxadiazole derivatives and their use in the treatment of disease” (NOVARTIS AG, priority 2011, dated 2015).
